According to patent US20220411362A1, “DITERPENOID COMPOUNDS THAT ACT ON PROTEIN KINASE C (PKC)” (K-Gen, Inc., priority 2019, published 2022):
Read-outs that look alike come from different tables or passages of the source.

What was measured:
C1b domain of human PKCδ = target: T1, C1b domain of human PKCδ (Homo sapiens, UniProt Q05655); assay: Competitive 3H-PDBu binding to C1b domain of PKCδ; conditions: 3H-PDBu competition
T1 construct: Genes encoding C1b domains of human PKCα, δ, ε, θ, and PKD1 (PKCμ) were synthesized; made in house; host or cells: E. coli BL21(DE3)
T1 sequence (Q05655 230-280 limits assumed): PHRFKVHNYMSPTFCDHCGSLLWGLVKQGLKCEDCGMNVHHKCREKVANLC
Method: (§1) Compounds described in this disclosure were tested for binding affinity to C1b domain of PKC isoforms. Compound binding affinity to C1b domain of PKC isoforms was derived from competitive binding assay using radioactive tracer ^3H-PDBu and recombinant GST-C1b or full-length of human PKC proteins based on modified procedures from Methods in Molecular Biology, vol.
(§2) Genes encoding C1b domains of human PKCα, δ, ε, θ, and PKD1 (PKCμ) were synthesized and inserted into pGEX-2TK or pGEX-4T1 vectors for expression and production of GST-C1b proteins in E. coli BL21(DE3) via IPTG induction. The target proteins were purified by glutathione sepharose 4B and followed by ion exchange chromatography if needed to achieve purity >70%. Aliquots of the purified proteins were stored at −80 degree for binding assay (storage buffer: 20 mM Tris pH 8.0, 200 mM NaCl, 10% glycerol, 1 mM DTT).
(§3) The plate was incubated at 37° C. on a shaker at 300 rpm for 10 minutes and then put on ice for 20 minutes. […] The bottom of the filter plate was sealed and 50 μL of MicroScint-20 (PerkinElmer) cocktail was added to each well. ^3H-PDBu trapped in each well was counted using PerkinElmer MicroBeta2 Reader. Data were analyzed using GraphPad Prism5 with the model “log(inhibitor) vs. response-variable slope” to fit the IC50, and then IC50 was transformed to Ki using Cheng-Prusoff equation: Ki=IC50/(1+added radio ligand/Kd). Kd is the binding affinity of each protein preparation to ^3H-PDBu, determined experimentally.

C1b domain of human PKCα = target: T2, C1b domain of human PKCα (Homo sapiens, UniProt P17252); assay: biochemical; assay type: binding; conditions: 3H-PDBu competition
T2 construct: Genes encoding C1b domains of human PKCα, δ, ε, θ, and PKD1 (PKCμ) were synthesized; made in house; host or cells: E. coli BL21(DE3)
Method: as §1, §2
The plate was incubated at 37° C. on a shaker at 300 rpm for 10 minutes and then put on ice for 20 minutes. […] The bottom of the filter plate was sealed and 50 μL of MicroScint-20 (PerkinElmer) cocktail was added to each well. ^3H-PDBu trapped in each well was counted using PerkinElmer MicroBeta2 Reader. […] Kd is the binding affinity of each protein preparation to ^3H-PDBu, determined experimentally.

C1b domain of human PKCθ = target: T3, C1b domain of human PKCθ (Homo sapiens, UniProt Q04759); assay: Competitive 3H-PDBu binding to C1b domain of PKCθ
T3 construct: Genes encoding C1b domains of human PKCα, δ, ε, θ, and PKD1 (PKCμ) were synthesized; made in house; host or cells: E. coli BL21(DE3)
T3 sequence (Q04759 231-281 limits assumed): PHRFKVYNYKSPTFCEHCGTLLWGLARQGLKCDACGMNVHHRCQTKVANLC
Method: as §1, §2, §3

C1b domain of human PKCε = target: T4, C1b domain of human PKCε (Homo sapiens, UniProt Q02156); assay: Competitive 3H-PDBu binding to C1b domain of PKCε
T4 construct: Genes encoding C1b domains of human PKCα, δ, ε, θ, and PKD1 (PKCμ) were synthesized; made in house; host or cells: E. coli BL21(DE3)
T4 sequence (Q02156 242-292 limits assumed): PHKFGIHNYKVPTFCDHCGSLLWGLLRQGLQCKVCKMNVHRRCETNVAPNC
Method: as §1, §2, §3

[1] = target: T5, C1b domain of human PKD1 (PKCμ) (Homo sapiens, UniProt Q15139); assay: biochemical; assay type: binding
T5 construct: Genes encoding C1b domains of human PKCα, δ, ε, θ, and PKD1 (PKCμ) were synthesized; made in house; host or cells: E. coli BL21(DE3)
T5 sequence (Q15139 270-320 limits assumed): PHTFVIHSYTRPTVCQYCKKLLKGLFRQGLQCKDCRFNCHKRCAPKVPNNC
Method: as §1, §2, §3

[2] = tested on: A549 non-small cell lung cancer cell line; assay: Proliferation of A549 (CellTiter Glo); assay type: cell-based; conditions: Homo sapiens, read-out: IC50 μM (A549 Cell Line)
Method: (§4) The diterpenoid compounds were tested in A549, a non-small cell lung cancer cell line harboring a K-Ras activating mutation. Briefly, A549 cells at a density of 1,000 cells/well were seeded in 96-well plates and incubated at 37° C. for 24 hours. A series of different concentrations of compound stocks (500×) were prepared by 3-fold serial dilution in DMSO. These compounds were further diluted in culture media and then added to cells so that the final DMSO concentration was not exceeding 0.25%. After 96 hours of incubation, 50 μL of CellTiter Glo reagent (Promega) was added to each well and luminescence was measured after 10 minutes using EnVision (PerkinElmer). Luminescence from cells treated with DMSO alone was set as Max and % of inhibition was calculated as follows: Inhibition %=(Max−Sample value)/Max×100. Data was analyzed using XL-fit software (ID Business Solutions Ltd.) and IC50, relative IC50, and % of top inhibition was calculated. Some of the compounds in this disclosure were very potent in blocking proliferation of A549 lung cancer cells at low nM range. In addition, potency of inhibiting A549 proliferation correlated well with its binding affinity to PKCs for this series of compounds. In other words, higher affinity binders had stronger inhibitory effects on A549 proliferation. This further support the notion that activation, rather than inhibition, of certain PKC isoforms is required to block proliferation of cancer cells, some of which may harbor K-Ras mutations. This is in sharp contrast to previous literature and common belief that inhibition of PKC is necessary to block cancer cell growth (Kang, 2014, New Journal of Science, 2014:1-36). Data presented here is in agreement with recent findings that many loss-of-function but not gain-of-function mutations of PKC isoforms have been identified in many human cancers (Antal et al., 2015, Cell, 160:489-502).

[3] = tested on: HL-60 (Leukemia) cell line; assay: Proliferation of HL-60; assay type: cell-based
Method: as §4
(§5) The compounds in this disclosure were tested for their potency in blocking proliferation of a few other cancer cells lines, including K-Ras mutant pancreatic cell lines Panc2.13 and KP-4, leukemia cell line HL-60, and lymphoma cell lines Namalwa and Mino. Similar procedures as in Example 67 were followed. Initial cell numbers seeded in 96-well plates were different for different cell lines: 3000 cells/well for Panc2.13; 800-1000 cells/well for KP-4; 5000 cells/well for HL-60; 5000-10000 cells/well for Namalwa and Mino. A ratio ratio of (IC50 of K01)/(IC50 of compound) (data in parenthesis in Table 5) was used to normalize the compound potency from different assay batches to a common comparator […].

[4] = tested on: Namalwa (Lymphoma) cell line; assay: Proliferation of Namalwa; assay type: cell-based; conditions: for ratio of (IC50 of K01)/(IC50 of compound), Namalwa: value in parenthesis; for IC50: read-out: IC50 in μM Namalwa (Lymphoma)
Method: as §4, §5

[5] = tested on: Mino (Lymphoma) cell line; assay: Proliferation of Mino; assay type: cell-based
Method: as §4, §5

[6] = Homo sapiens, HL-60, read-out: IC50 in μM HL-60 (Leukemia)
[7] = Homo sapiens, MINO, read-out: IC50 in μM Mino (Lymphoma)

| Compound | Ki (C1b domain of human PKCδ; Ki PKCδ) [nM] | Ki (C1b domain of human PKCα; Ki PKCα) [nM] | Ki (C1b domain of human PKCθ) [nM] | Ki (C1b domain of human PKCε) [nM] | Ki [1] [nM] | IC50 ([2]; A549, 96 h) [µM] | ratio of (IC50 of K01)/(IC50 of compound), HL-60 ([3]; HL-60; value in parenthesis) | IC50 [3, 6] [µM] | ratio of (IC50 of K01)/(IC50 of compound), Namalwa [4] | IC50 [4] [µM] | IC50 [5, 7] [µM] | ratio of (IC50 of K01)/(IC50 of compound), Mino ([5]; Mino; value in parenthesis) | Ki (C1b domain of human PKCδ; read-out: Ki PKCδ) [nM] | Ki (C1b domain of human PKCα; read-out: Ki PKCα) [nM] | Ki (C1b domain of human PKCθ; C1b domain of human PKCθ, 3H-PDBu competition, read-out: Ki PKCθ) [nM] | Ki (C1b domain of human PKCε; C1b domain of human PKCε, 3H-PDBu competition, read-out: Ki PKCε) [nM] | Ki ([1]; C1b domain of human PKD1 (PKCμ), 3H-PDBu competition, read-out: Ki PKD1/PKCμ) [nM] | IC50 ([2]; A549, 96 hours incubation, CellTiter Glo) [µM] | IC50 ([3]; Homo sapiens, HL-60; read-out: IC50 in μM HL-60 (Leukemia)) [µM] | IC50 ([5]; Homo sapiens, MINO; read-out: IC50 in μM Mino (Lymphoma)) [µM] |
| --- | --- | --- | --- | --- | --- | --- | --- | --- | --- | --- | --- | --- | --- | --- | --- | --- | --- | --- | --- | --- |
| CC1=C[C@H]2[C@@]3(O)[C@H](C)C[C@]4(OC(=O)[C@H](N)C(C)(C)c5ccc(C(F)(F)F)cc5)[C@H]([C@@H]3C=C(CO)C[C@]2(O)C1=O)C4(C)C [Compound K101-C134901] | 1 to 30 | 200 to 400 | 1 to 30 | 1 to 30 | 5 to 10 | 0.2 to 0.6 | 2.75 | 0.1 to 0.2 | 0.49 | 0.1 to 0.2 | 0.01 to 0.03 | 3.88 |  |  |  |  |  |  |  |  |
| CC1=C[C@H]2[C@@]3(O)[C@H](C)C[C@]4(O)[C@H]([C@@H]3C=C(CO)C[C@]2(O)C1=O)C4(C)C [Compound K101-C13OH] | 6000 to 8000 | > 8000 | 2000 to 4000 | 2000 to 4000 | 4000 to 6000 | > 30 |  |  |  |  |  |  |  |  |  |  |  |  |  |  |
| CC1=C[C@H]2[C@@]3(O)[C@H](C)C[C@]4(OC(=O)CC5CC6(C5)CN(C(=O)OC(C)(C)C)C6)[C@H]([C@@H]3C=C(CO)C[C@]2(O)C1=O)C4(C)C [Compound K101-C1312] | 5 to 10 | 100 to 200 | 1 to 30 | 1 to 30 | < 5 | 0.03 to 0.06 |  |  |  |  |  |  |  |  |  |  |  |  |  |  |
| CC1=C[C@H]2[C@@]3(O)[C@H](C)C[C@]4(OC(=O)Cc5ccccc5)[C@H]([C@@H]3C=C(CO)C[C@]2(O)C1=O)C4(C)C [Compound K101-C1304] |  |  |  |  |  |  | 18 |  | 3.29 | 0.01 to 0.03 |  | 15.6 | 5 to 10 | 100 to 200 | 5 to 10 | 1 to 30 | < 5 | 0.03 to 0.06 | 0.01 to 0.03 | 0.001 to 0.01 |
| CC1=C[C@H]2[C@@]3(O)[C@H](C)C[C@]4(OC(=O)CCC5CCCC5)[C@H]([C@@H]3C=C(CO)C[C@]2(O)C1=O)C4(C)C [Compound K101-C1301] | 5 to 10 | 100 to 200 | 1 to 30 | 5 to 10 | < 5 | 0.03 to 0.06 | 9.23 | 0.03 to 0.06 | 1.73 | 0.03 to 0.06 | 0.001 to 0.01 | 11 |  |  |  |  |  |  |  |  |
